Data set [1] has as its system bovine P450 11A1. On the set-up: method as in PMID 7056749. To be noted: bovine P450 11A1, within dead time of stopped-flow ref 12; cited from earlier work.
For data set [2], the target named is T1, human P450 11A1 (Homo sapiens, UniProt P05108).
T1 construct: M A S T R S P R P F N E I P S P G D N; Met-Ala (N-terminal start residues in place of the transit peptide and Ile40) (N); made in house; host or cells: E. coli C41(DE3) with GroES/GroEL, vector pET23C(+)
T1 sequence (P05108 41-521 limits assumed): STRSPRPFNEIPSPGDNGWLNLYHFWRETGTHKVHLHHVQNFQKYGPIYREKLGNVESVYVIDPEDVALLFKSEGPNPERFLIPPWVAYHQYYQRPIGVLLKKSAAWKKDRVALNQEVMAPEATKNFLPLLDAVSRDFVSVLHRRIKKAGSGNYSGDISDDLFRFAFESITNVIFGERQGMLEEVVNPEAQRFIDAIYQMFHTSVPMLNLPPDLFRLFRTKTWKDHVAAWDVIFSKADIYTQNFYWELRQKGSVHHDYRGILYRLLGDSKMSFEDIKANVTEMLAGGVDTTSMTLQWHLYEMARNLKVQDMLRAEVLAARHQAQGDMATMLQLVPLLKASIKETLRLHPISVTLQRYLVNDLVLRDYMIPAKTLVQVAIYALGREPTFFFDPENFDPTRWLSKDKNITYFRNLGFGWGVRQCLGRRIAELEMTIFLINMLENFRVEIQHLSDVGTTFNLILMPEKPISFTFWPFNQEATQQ
Description: Steady-state spectral (type I) binding titration, Kd determination. The method, then: Ligand binding constants were determined from the low-to high-spin (hypsochromic) spectral transition that occurs at the P450 heme as substrate entering the active site replaces water as the sixth axial heme ligand. […] As a result, we subsequently measured koff values of the P450-sterol complexes, which were consistent with the low Kd values observed (see below). Binding titrations were repeated in the presence of Adx (1 M equivalent, Fig. 6), although no significant effect was observed, even when Adx was added in excess (10-fold with cholesterol as the substrate, data not shown).
Spectra were recorded using either an OLIS-Cary 14 or OLIS-Aminco DW2a instrument (On-Line Instrument Systems) in the split-beam mode. The OLIS-Cary 14 instrument was used in the P450 11A1 titrations with a 10-cm cell (Starna Cells, catalog no. 34-Q-100, volume 25 ml).
Kd values were determined by difference spectroscopy as previously reported ([33], [43]) but with some modifications. Briefly, a long-path quartz cuvette (10 cm, 25 ml) containing P450 11A1 (0.1 μM, in 100 mM potassium phosphate buffer (pH 7.4)) was prepared and a baseline was recorded in an OLIS-Cary 14 spectrophotometer. Where indicated, the redox partner Adx was added in equimolar concentration (0.1 μM) to P450. Sterol solutions (in 45% HPCD, w/v) were added to the cuvette, the contents of the cuvette were inverted to mix, and a spectrum was recorded (350–500 nm) after each addition. The total volume added to each cuvette was kept ≤2% (v/v, 0.25 ml) in the assay. The maximum absorbance difference (usually ΔA390−A418) was plotted against the total sterol concentration, and the data were fit to a quadratic equation in GraphPad Prism software (GraphPad, https://www.graphpad.com) to estimate the dissociation constant (Kd). A quadratic equation was used to correct the ligand concentration for the enzyme-bound concentration (used as Y=B+A/2∗1/E∗((Kd+E+X)−(Kd+E+X)^2−(4∗E∗X)) (or Y = B + (A/2)∗(1/E)∗((Kd + E + X)-sqrt((Kd + E + X)∧2 -(4∗E∗X)) in Prism software), where E = enzyme concentration, Kd = dissociation constant, and X = […]).

In data set [3] the test system is bovine P450 11A1. On the set-up: method as in PMID 217878. The following applies: equilibrium dialysis, bovine P450 11A1 ref 26; cited from earlier work.
The target of data set [4] is T1, human P450 11A1. Description: Stopped-flow ketoconazole trap, koff and binding rate measurements. To be noted: for koff: read-out: koff of P450-sterol complex, 2 μM P450 11A1 + 2 μM steroid mixed with 20 μM ketoconazole, 23 °C, without Adx. The method, then: Interaction of the azole nitrogen atom with the P450 heme produces a bathochromic (“type II”) spectral shift (to ∼430 nm)—an inverse effect of the binding of substrate.
Measurement of kon rate(s) was not performed because the sterols are delivered in a solution of HPCD, from which the dissociation rate is not known.
Determinations of koff rates were performed as previously described ([33]).

Data set [5] has as its system human P450 11A1. On the set-up: method as in PMID 33271253. The following applies: surface plasmon resonance ref 46; cited from earlier work. A general note: In SPR one partner is held on a chip, and binding of the other changes the refractive index at the surface.
Setting [6] is: 0.10 μM P450 11A1, 10 cm cuvette, with 0.10 μM Adx, quadratic fit, read-out: Kd, (+) Adx.
The mark [7] stands for this setting: 0.10 μM P450 11A1, 10 cm cuvette, without Adx, quadratic fit, read-out: Kd, (−) Adx.

Where two headings read alike, the source gives them in different places.

Regarding `CC(C)CC[C@@H](O)[C@](C)(O)[C@H]1CC[C@H]2[C@@H]3CC=C4C[C@@H](O)CC[C@]4(C)[C@H]3CC[C@]12C` [20R,22R-(OH)2 Chol, (20R,22R)-Cholest-5-ene-3β,20,22-triol], the “rates of binding and dissociation” value in the data set on bovine P450 11A1 [1] is above 300 s⁻¹. Also, the equilibrium dissociation constant (Kd) (commonly a measure of binding affinity in units of concentration) at human P450 11A1 [2] (setting [6]) was 40 ± 10 nM; at human P450 11A1 [2] (setting [7]), 30 ± 20 nM; in the data set with bovine P450 11A1 [3], 81 nM.
Consider `CC(C)CC[C@H](O)[C@](C)(O)[C@H]1CC[C@H]2[C@@H]3CC=C4C[C@@H](O)CC[C@]4(C)[C@H]3CC[C@]12C` [20R,22S-(OH)2 Chol, (20R,22S)-Cholest-5-ene 3β,20,22-triol], for which the Kd on human P450 11A1 [2] (setting [6]) was 90 ± 20 nM; at human P450 11A1 [2] (setting [7]), 120 ± 30 nM.
For the molecule `CC(C)CC[C@@H](O)[C@@H](C)[C@H]1CC[C@H]2[C@@H]3CC=C4C[C@@H](O)CC[C@]4(C)[C@H]3CC[C@]12C` [22R-OH Chol, 22R-hydroxycholesterol], the Kd at human P450 11A1 [2] (Kd, 100 nM P450 11A1, 10-cm cell, quadratic fitting) was around 20 nM; on human P450 11A1 [2] (Kd, (+) Adx, 0.10 μM P450 11A1, 10 cm cuvette, with 0.10 μM Adx, quadratic fit) it was 20 ± 3 nM; at human P450 11A1 [2] (Kd, (−) Adx, 0.10 μM P450 11A1, 10 cm cuvette, without Adx, quadratic fit), 20 ± 10 nM; in the data set on bovine P450 11A1 [3], 4.9 nM. The “koff of P450-sterol complex” value on human P450 11A1 [4] (2 μM P450 11A1 + 2 μM steroid mixed with 20 μM ketoconazole, 23 °C, without Adx) amounted to 0.044 ± 0.001 s⁻¹. Besides, the dissociation rate constant (koff) (in general, the first-order rate constant of dissociation) on human P450 11A1 [4] amounted to 0.04 s⁻¹.
For `CC(C)CCC[C@@H](C)[C@H]1CC[C@H]2[C@@H]3CC=C4C[C@@H](O)CC[C@]4(C)[C@H]3CC[C@]12C` [Cholesterol], the “rates of binding and dissociation” value in the data set with bovine P450 11A1 [1] is above 300 s⁻¹. Besides, the results for the Kd at human P450 11A1 [2] (setting [6]) and at human P450 11A1 [2] (setting [7]) were 110 ± 10 nM and 120 ± 10 nM, respectively. Further, the “decrease in Kd of P450 11A1-Adx complex in the presence of cholesterol” value in the data set on human P450 11A1 [5] is listed as around 3 fold. The molecule further showed an observed binding rate on human P450 11A1 [4] (20 μM final concentration, in HPCD) of 0.05 s⁻¹. At human P450 11A1 [4] (in the presence of HPCD), the “apparent kon slower than kon of ketoconazole to unliganded P450” value is above 200 fold. Moreover, the on-rate (kon) – broadly, a measure of how fast the partners come together – at human P450 11A1 [4] (read-out: apparent kon) stood at 2500 M⁻¹ s⁻¹. Also, on human P450 11A1 [4], the off-rate (koff) was found to be 0.24 ± 0.01 s⁻¹.
Turning to `CC(=O)[C@H]1CC[C@H]2[C@@H]3CC=C4C[C@@H](O)CC[C@]4(C)[C@H]3CC[C@]12C` [Pregnenolone], the Kd is 560 ± 120 nM at human P450 11A1 [2] (setting [6]) and 480 ± 220 nM at human P450 11A1 [2] (setting [7]).

(Values after paper PMC10716780, “The multistep oxidation of cholesterol to pregnenolone by human cytochrome P450 11A1 is highly processive” (The Journal of Biological Chemistry, 2023).)
